In data set [1] the test system is IFNγ-induced NO production in RAW264.7 macrophages. Nature of the data set: Suppression of IFNγ-induced NO production (Griess reagent). Type of data set: cell-based, mouse. As to conditions: Mus musculus; RAW264.7, 20 ng/ml IFNγ 24 h, 2 h pre-treatment. How it is done:
(§1) FIGS. 1-8 and 32-34. Inhibition of NO Production. RAW264.7 macrophages were pre-treated with DMSO or drugs at various concentrations (nM) for 2 hours, then treated with 20 ng/ml IFNγ for 24 hours. NO concentration in media was determined using a Griess reagent system; cell viability was determined using WST-1 reagent.
(§2) Nitric Oxide production and cell viability. RAW264.7 macrophages were pre-treated with DMSO or drugs for 2 hours, then treated with recombinant mouse IFNγ (Sigma) for 24 hours. NO concentration in media was determined using the Griess reagent system (Promega). Cell viability was determined using WST-1 reagent (Roche).
(In general: Griess reagent forms a coloured azo dye with nitrite.)

In another data set the test system is RAW264.7 macrophages. Put plainly: Cell viability, WST-1 reagent. Format: cell-based, mouse. As to conditions: Mus musculus, RAW264.7 (20 ng/ml IFNγ). How it is done: as §1, §2
For orientation: Tetrazolium assays rely on reduction of a dye to a coloured formazan, in cell work by metabolically active cells.

Another data set concerns iNOS. Put plainly: iNOS suppression, Western blot. Format: cell-based, mouse. Particulars: RAW264.7 (20 ng/ml IFNγ). Background: A western blot detects proteins with antibodies after separation by electrophoresis.
A further data set deals with HO-1. Nature of the data set: Nrf2 target gene induction, HO-1 mRNA (qPCR). Type of data set: cell-based, human. Particulars: MDA-MB-435 cells. How it is done:
FIGS. 17-20. Induction of HO-1. MDA-MB-435 human melanoma cells were treated with vehicle (DMSO) or the indicated compounds and concentrations for 16 hours. HO-1 mRNA levels were quantified using qPCR and were normalized relative to a DMSO-treated sample run in parallel. Values are averages of duplicate wells.
(§3) FIG. 21. Induction of HO-1, TrxR1 and γ-GCS. MDA-MB-435 human melanoma cells were treated with vehicle (DMSO) or the indicated compounds and concentrations for 16 hours. HO-1, thioredoxin reductase-1 (TrxR1), and γ-glutamylcysteine synthetase (γ-GCS) mRNA levels were quantified using qPCR and were normalized relative to a DMSO-treated sample run in parallel. Values are averages of duplicate wells.
(§4) Nrf2 target gene induction. MDA-MB-435 human melanoma cells were treated with vehicle (DMSO) or the indicated compounds and concentrations for 16 hours. HO-1, thioredoxin reductase-1 (TrxR1), γ-glutamylcysteine synthetase (γ-GCS), and ferritin heavy chain mRNA levels were quantified using qPCR and were normalized relative to a DMSO-treated sample run in parallel. Values are averages of duplicate wells. Primer sequences are as follows.

Data set [2] has as its system thioredoxin reductase-1 (TrxR1). Put plainly: Nrf2 target gene induction, TrxR1 mRNA (qPCR). Format: cell-based, human. Particulars: MDA-MB-435 cells. How it is done: as §3
FIG. 22. Induction of TrxR1. MDA-MB-435 human melanoma cells were treated with vehicle (DMSO) or the indicated compounds and concentrations for 16 hours. Thioredoxin reductase-1 (TrxR1) mRNA levels were quantified using qPCR and were normalized relative to a DMSO-treated sample run in parallel. Values are averages of duplicate wells. Compounds 401, 402-19 and 402-53 are comparison compounds (see Example 1).
as §4

The test system of data set [3] is γ-glutamylcysteine synthetase (γ-GCS). Nature of the data set: Nrf2 target gene induction, γ-GCS mRNA (qPCR). Format: cell-based, human. As to conditions: MDA-MB-435 cells. As for the experimental part:
as §3
FIG. 23. Induction of γ-GCS. MDA-MB-435 human melanoma cells were treated with vehicle (DMSO) or the indicated compounds and concentrations for 16 hours. γ-glutamylcysteine synthetase (γ-GCS) mRNA levels were quantified using qPCR and were normalized relative to a DMSO-treated sample run in parallel. Values are averages of duplicate wells.
as §4

The next data set deals with NQO1. Nature of the data set: Nrf2 target gene induction, NQO1. Particulars: MDA-MB-435 cells, 250 nM; fold induction above DMSO control. Format: cell-based, human.
For the next data set, the system named is Ferritin heavy chain. Put plainly: Induction of ferritin heavy chain mRNA (qPCR). Type of data set: cell-based, human. Particulars: MDA-MB-435 cells, 16 hours. As for the experimental part: FIG. 24. Induction of Ferritin Heavy Chain. MDA-MB-435 human melanoma cells were treated with vehicle (DMSO) or the indicated compounds and concentrations for 16 hours. Ferritin heavy chain mRNA levels were quantified using qPCR and were normalized relative to a DMSO-treated sample run in parallel. Values are averages of duplicate wells.
as §4

A further data set concerns Sprague-Dawley rats. Particulars: Sprague-Dawley rats, 1,500 mg/m^2/day for 14 days.
The next data set deals with mice. As to conditions: sesame oil, N=4.
The mark [4] stands for this setting: 250 nM, fold induction above DMSO control.
[5] abbreviates: 400 nM, percent of induction observed for 402.

Read-outs that look alike come from different tables or passages of the source.

Regarding `COC(=O)[C@]12CCC(C)(C)C[C@H]1[C@H]1C(=O)CC3[C@@]4(C)C=C(C#N)C(=O)C(C)(C)[C@@H]4CC[C@@]3(C)[C@]1(C)CC2` (stereo partly drawn) [Compound 63101, (4aS,6aR,6bR,8aR,12aR,14aR,14bS)-methyl 11-cyano-2,2,6a,6b,9,9,12a-heptamethyl-10,14-dioxo-1,2,3,4,4a,5,6,6a,6b,7,8,8a,9,10,12a,12b,13,14,14a,14b-icosahydropicene-4a-carboxylate], the IC50 (in general, the concentration at which inhibition is half-maximal) in [1] is about 12 nM; in the data set on RAW264.7 macrophages, 200 nM. Further, the “iNOS suppr. WB” value in the data set with iNOS was over 90%. Further, the HO-1 induction in the data set with HO-1 (setting [4]) is 3 fold; in the data set on HO-1 (setting [5]), 4%. In data set [2] (setting [5]), this molecule showed a TrxR1 induction of 47%. In addition, the “TrxR1 mRNA induction: concentration needed compared with unsaturated counterpart (402, 404)” value in data set [2] (16 hours) was “higher concentrations”. Moreover, the γ-GCS induction in [3] (setting [4]) is recorded as 5 fold; in [3] (setting [5]), 53%. Besides, the “γ-GCS mRNA induction: concentration needed compared with unsaturated counterpart (402, 404)” value in [3] (16 hours) was “higher concentrations”. Moreover, the NQO1 induction in the data set on NQO1 was 2 fold. Besides, in the data set with Ferritin heavy chain, the “Ferritin heavy chain mRNA induction: concentration needed compared with unsaturated counterpart (402, 404)” value is reported as “higher concentrations”. Moreover, the “highest dose without significant toxicity relative to the MTD of RTA 402 in this species” value with Sprague-Dawley rats is 50 fold. The “Number of Deaths” value in the data set with mice (oral gavage QDx14, 10 mg/kg) is reported as 0; with mice (oral gavage QDx14, 50 mg/kg) it was 0; in the data set on mice (oral gavage QDx14, 100 mg/kg) it was 0; in the data set on mice (oral gavage QDx14, 250 mg/kg), 0.
